# From patent US20080199413A1, “Novel Use of Organic Compounds” (priority 2005, published 2008)
# Tested on: human dermal fibroblasts
# Experiment: UV-A radiation-induced mtDNA common deletion in human dermal fibroblasts (nested PCR)
# Assay type: cell-based
# Conditions: for Prevalence of mtDNA deletion relative to untreated cells: representative experiment; for Protection of fibroblasts against the UV-A radiation-induced generation of the common deletion (in words): overall finding of 3 experiments
# Source text: Sunlight (Systems Dr. […]) irradiation device. […] The cells were then harvested by trypsinisation. […] Dermatol. […] (7293-7316); [NT] (13928-13905); [NT] (7901-7920); [NT] (13650-13631); [NT] (219-238); C2, [NT]
# [1] = UV-A radiation + 0.25 μM carotenoid, after 1 week
# [2] = UV-A radiation + 0.5 μM carotenoid, after 1 week
# [3] = UV-A radiation + 1.0 μM carotenoid, after 1 week
# [4] = UV-A radiation + 2.0 μM carotenoid, after 1 week
# [5] = UV-A radiation + 3.0 μM carotenoid, after 1 week
# [6] = all doses tested (0.25-3 μM), after 1 week
SMILES,Prevalence of mtDNA deletion relative to untreated cells [1],Prevalence of mtDNA deletion relative to untreated cells [2],Prevalence of mtDNA deletion relative to untreated cells [3],Prevalence of mtDNA deletion relative to untreated cells [4],Prevalence of mtDNA deletion relative to untreated cells [5],Effect on UV-A radiation-induced formation of the common deletion (in words) [6],Protection of fibroblasts against the UV-A radiation-induced generation of the common deletion (in words),"Effect on UV-A radiation-induced formation of the common deletion (in words) (at 0.5, 1 μM and 2 μM, after 1 week)","Prevalence of mtDNA deletion relative to untreated cells (UV-A radiation + 0.1 μM carotenoid, after 2 weeks)","Prevalence of mtDNA deletion relative to untreated cells (UV-A radiation + 0.25 μM carotenoid, after 2 weeks)","Prevalence of mtDNA deletion relative to untreated cells (UV-A radiation + 0.5 μM carotenoid, after 2 weeks)","Prevalence of mtDNA deletion relative to untreated cells (UV-A radiation + 1.0 μM carotenoid, after 2 weeks)","Prevalence of mtDNA deletion relative to untreated cells (UV-A radiation + 2.0 μM carotenoid, after 2 weeks)","Prevalence of mtDNA deletion relative to untreated cells (UV-A radiation + 3.0 μM carotenoid, after 2 weeks)","Effect on UV-A radiation-induced induction of the common deletion (in words) (all concentrations tested, after 2 weeks)"
CC1=C[C@H](O)CC(C)(C)[C@H]1/C=C/C(C)=C/C=C/C(C)=C/C=C/C=C(C)/C=C/C=C(C)/C=C/C1=C(C)C[C@@H](O)CC1(C)C [lutein],0.98,0.27,0.71,0.37,0.59,completely prevented,found to protect,–,–,–,–,–,–,–,–
CC(C)=CCC/C(C)=C/C=C/C(C)=C/C=C/C(C)=C/C=C/C=C(C)/C=C/C=C(C)/C=C/C=C(\C)CCC=C(C)C [lycopene],2.90,1.22,1.53,1.53,2.52,inhibits,consistently found to protect,Complete protection,–,–,–,–,–,–,–
CC1=C(/C=C/C(C)=C/C=C/C(C)=C/C=C/C=C(C)/C=C/C=C(C)/C=C/C2=C(C)C[C@@H](O)CC2(C)C)C(C)(C)CCC1 [β-cryptoxanthin],–,–,–,–,–,–,–,–,0.80,0.64,0.25,0.62,0.25,1.03,abrogated
"CC1=C(/C=C/C(C)=C/C=C/C(C)=C/C=C/C=C(C)/C=C/C=C(C)/C=C/C2=C(C)C[C@@H](O)CC2(C)C)C(C)(C)C[C@H](O)C1 [Zeaxanthin, zeaxanthin, reference compound]",–,–,–,–,–,–,no effect,–,–,–,–,–,–,–,–
